Test results published in ChEMBL document CHEMBL4610000, “Discovery of structurally distinct tricyclic M4 positive allosteric modulator (PAM) chemotypes” (Bioorg Med Chem Lett, 2020).

Tests used:
[1] = Unbound brain-to-plasma concentration ratio in Sprague-Dawley rat at 0.2 mg/kg, iv measured after 0.25 hrs; assay type: ADME, organism-based; conditions: brain and plasma, read-out: K(p,uu,brain)
[2] = Brain to plasma permeability coefficient, Kp of the compound in Sprague-Dawley rat at 0.2 mg/kg, iv measured after 0.25 hrs; assay type: ADME, organism-based; conditions: brain and plasma
[3] = Intrinsic clearance in rat microsomes; assay type: ADME, Microsome
[4] = Intrinsic clearance in human microsomes; assay type: ADME, Microsome
[5] = biological target: T1, Muscarinic acetylcholine receptor M4 (Rattus norvegicus, UniProt P08485); test: Positive allosteric modulation of rat muscarinic M4 receptor
T1 sequence (P08485 whole entry): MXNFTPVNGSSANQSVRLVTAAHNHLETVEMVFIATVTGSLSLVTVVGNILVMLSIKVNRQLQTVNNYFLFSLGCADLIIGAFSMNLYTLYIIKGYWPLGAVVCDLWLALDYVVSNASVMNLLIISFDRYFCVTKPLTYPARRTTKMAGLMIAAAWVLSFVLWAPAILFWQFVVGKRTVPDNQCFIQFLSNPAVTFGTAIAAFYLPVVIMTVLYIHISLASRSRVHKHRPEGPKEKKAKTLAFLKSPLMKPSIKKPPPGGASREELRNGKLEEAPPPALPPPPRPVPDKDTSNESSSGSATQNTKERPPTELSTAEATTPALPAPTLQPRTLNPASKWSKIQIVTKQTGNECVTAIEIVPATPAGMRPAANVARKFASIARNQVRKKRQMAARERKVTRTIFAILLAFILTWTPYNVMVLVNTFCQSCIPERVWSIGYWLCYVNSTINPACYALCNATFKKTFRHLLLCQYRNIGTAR

[6] = biological target: T2, Muscarinic acetylcholine receptor M4 (Homo sapiens, UniProt P08173); test: Positive allosteric modulation of human muscarinic M4 receptor expressed in CHO cells co-expressing Gqi5 assessed as increase in acetylcholine-induced calcium mobilization; assay type: functional, cell-based
T2 sequence (P08173 whole entry): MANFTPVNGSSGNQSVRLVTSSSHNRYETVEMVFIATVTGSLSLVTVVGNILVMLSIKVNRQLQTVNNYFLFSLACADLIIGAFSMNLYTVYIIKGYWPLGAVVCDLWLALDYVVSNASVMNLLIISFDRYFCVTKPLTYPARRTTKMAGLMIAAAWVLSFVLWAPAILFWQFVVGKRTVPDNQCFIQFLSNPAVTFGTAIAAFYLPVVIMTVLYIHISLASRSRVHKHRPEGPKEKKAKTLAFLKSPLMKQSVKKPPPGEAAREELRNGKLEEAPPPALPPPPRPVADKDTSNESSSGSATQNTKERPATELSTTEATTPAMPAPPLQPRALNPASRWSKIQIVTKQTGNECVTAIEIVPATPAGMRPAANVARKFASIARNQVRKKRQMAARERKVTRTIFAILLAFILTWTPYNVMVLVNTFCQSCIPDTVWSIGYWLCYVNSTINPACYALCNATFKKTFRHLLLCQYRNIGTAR

[7] = Unbound fraction in rat plasma; assay type: ADME, cell-free
[8] = biological target: T3, Muscarinic acetylcholine receptor M4 (Homo sapiens) (UniProt P08173); test: Positive allosteric modulation of human muscarinic M4 receptor expressed in CHO cells co-expressing Gqi5 assessed as increase in acetylcholine-induced calcium mobilization relative to acetylcholine; assay type: functional, cell-based
T3 sequence (whole entry): T2 sequence (P08173 whole entry)

[9] = Unbound fraction in rat brain; assay type: ADME, tissue-based
[10] = Unbound fraction in human plasma; assay type: ADME, cell-free

| SMILES | EC50 [5] [nM] | EC50 [6] [nM] | %max [8] [%] | other results |
| --- | --- | --- | --- | --- |
| COc1cc(N2CC(Nc3ncnc4c3ccc3nn(C)c(C)c34)C2)c(Cl)cn1 | 226 | 379 | 86 | Kp uu at 0.25 h [1]: 3.88; Kp at 0.25 h [2]: 1.55; CLint scaled [3]: 120 mL/min/kg; CLint scaled [4]: 55 mL/min/kg; fraction unbound [7]: 0.002; fraction unbound [9]: 0.005; fraction unbound [10]: 0.007 |
| Cn1nnc2ccc(C(=O)NC3CN(c4ccc(F)c(F)c4)C3)c(N)c21 | – | 2430 | 94 | – |
| Cc1c2c(ccc3c(NCc4ccc(C(C)(C)O)cc4)ncnc32)nn1C | – | 552 | 86 | %max ([8]; tested as the 2H-labelled form): 86% |
| Cc1c2c(N)c(C(=O)NC3CN(c4ncc(C#N)cc4Cl)C3)ccc2nn1C | 129 | 158 | 93 | – |
| Cc1c2c(N)c(C(=O)NC3CN(c4ncccc4F)C3)ccc2nn1C | – | 3550 | 103 | – |
| COc1ccc(CNc2ncnc3c2ccc2nnn(C)c23)cc1F | – | 592 | 74 | – |
| [2H]C([2H])(Nc1ncnc2c1ccc1nn(C)c(C)c12)c1ccc(C(C)(C)O)cc1 | – | 886 | – | – |
| Cn1nnc2ccc(C(=O)NC3CN(c4ccnc(C(F)(F)F)c4)C3)c(N)c21 | – | 814 | 79 | – |
| Cn1nnc2ccc(C(=O)NC3CN(c4ncc(C#N)cc4Cl)C3)c(N)c21 | – | 462 | 83 | – |
| Cc1c2c(ccc3c(NCc4ccc(C(=O)NC5CCC5)cc4)ncnc32)nn1C | 322 | 475 | 100 | – |
| COc1cc(N2CC(NC(=O)c3ccc4nn(C)c(C)c4c3N)C2)c(Cl)cn1 | 82 | 148 | 80 | Kp uu at 0.25 h [1]: 0.25; Kp at 0.25 h [2]: 0.18; CLint scaled [3]: 30 mL/min/kg; CLint scaled [4]: 9 mL/min/kg; fraction unbound [7]: 0.008; fraction unbound [9]: 0.011; fraction unbound [10]: 0.045 |
| Cn1nnc2ccc(C(=O)NC3CN(c4cccc(Cl)n4)C3)c(N)c21 | – | 4500 | 84 | – |
| Cn1nnc2ccc(C(=O)NC3CN(c4ncc(Cl)cc4F)C3)c(N)c21 | 167 | 364 | 65 | – |
| Cn1nnc2ccc3c(NCc4ccc(C(C)(C)O)cc4)ncnc3c21 | – | 1720 | 97 | – |
| COc1cc(N2CC(Nc3ncnc4c3ccc3nnn(C)c34)C2)c(Cl)cn1 | – | 1490 | 93 | – |
| Cc1c2c(N)c(C(=O)NC3CN(c4ncc(Cl)cc4F)C3)ccc2nn1C | 72 | 244 | 96 | – |
| Cc1c2c(ccc3c(CC(C)(C)C)ncnc32)nn1C | – | 467 | 98 | – |
| Cc1c2cc(C(=O)NC3CN(c4cc(Cl)ncc4Cl)C3)ccc2nn1C | 259 | – | – | Kp uu at 0.25 h [1]: 0.04; Kp at 0.25 h [2]: 0.05; CLint scaled [3]: 28 mL/min/kg; CLint scaled [4]: 33 mL/min/kg |
| Cc1c2c(N)c(C(=O)NC3CN(c4cccc(Cl)n4)C3)ccc2nn1C | – | 1450 | 78 | – |

| SMILES | EC50 [5] [nM] | EC50 [6] [nM] | %max [8] [%] | other results |
| --- | --- | --- | --- | --- |
| Cn1nnc2ccc3c(NC4CN(c5cc(Cl)ncc5Cl)C4)ncnc3c21 | 148 | 63 | 81 | Kp uu at 0.25 h [1]: 0.11; Kp at 0.25 h [2]: 0.25; CLint scaled [3]: 110 mL/min/kg; CLint scaled [4]: 21 mL/min/kg; fraction unbound [7]: 0.007; fraction unbound [9]: 0.003; fraction unbound [10]: 0.021 |
| Cc1c2c(N)c(C(=O)NC3CN(c4ncc(F)cn4)C3)ccc2nn1C | – | 6210 | 90 | – |
| Cc1c2c(N)c(C(=O)NC3CN(c4ccc(C(F)(F)F)nc4)C3)ccc2nn1C | 112 | 137 | 80 | – |
| Cn1nnc2ccc(C(=O)NC3CN(c4ccc(C#N)cn4)C3)c(N)c21 | – | 1720 | 60 | – |
| Cc1c2c(N)c(C(=O)NC3CN(c4cc(Cl)ncc4Cl)C3)ccc2nn1C | 42 | 125 | 86 | Kp uu at 0.25 h [1]: 0.3; Kp at 0.25 h [2]: 0.12; CLint scaled [3]: 180 mL/min/kg; CLint scaled [4]: 50 mL/min/kg; fraction unbound [7]: 0.01; fraction unbound [9]: 0.025; fraction unbound [10]: 0.034 |
| COc1cc(N2CC(NC(=O)c3ccc4nnn(C)c4c3N)C2)c(Cl)cn1 | 232 | 373 | 71 | – |
| Cc1c2c(N)c(C(=O)NC3CN(c4ccc(F)c(F)c4)C3)ccc2nn1C | – | 619 | 85 | – |
| Cn1nnc2ccc(C(=O)NC3CN(c4cc(Cl)ncc4Cl)C3)c(N)c21 | 157 | 91 | 63 | Kp uu at 0.25 h [1]: 0.18; Kp at 0.25 h [2]: 0.17; CLint scaled [3]: 120 mL/min/kg; CLint scaled [4]: 27 mL/min/kg; fraction unbound [7]: 0.032; fraction unbound [9]: 0.033; fraction unbound [10]: 0.084 |
| Cc1c2c(ccc3c(NC4CN(c5cc(Cl)ncc5Cl)C4)ncnc32)nn1C | 254 | 275 | 101 | Kp uu at 0.25 h [1]: 0.11; Kp at 0.25 h [2]: 0.21; CLint scaled [3]: 170 mL/min/kg; CLint scaled [4]: 120 mL/min/kg; fraction unbound [7]: 0.004; fraction unbound [9]: 0.002; fraction unbound [10]: 0.008 |
| Cc1c2c(ccc3c(NC4CCCC4)ncnc32)nn1C | – | 848 | 76 | – |
| Cc1c2c(ccc3c(NCc4ccc(F)c(F)c4)ncnc32)nn1C | – | 1480 | 86 | – |
| Cc1c2c(ccc3c(N4CCCC4)ncnc32)nn1C | – | 624 | 74 | – |
| Cn1nnc2ccc3c(NC4CCCC4)ncnc3c21 | – | 820 | 69 | – |
| Cn1nnc2ccc(C(=O)NC3CN(c4ncc(F)cc4Cl)C3)c(N)c21 | – | 3600 | 80 | – |
| COc1ccc(CNc2ncnc3c2ccc2nn(C)c(C)c23)cc1F | 181 | 470 | 95 | – |
| Cc1c2c(ccc3c(NCc4ccc(C(=O)NCC(C)(C)C)cc4)ncnc32)nn1C | – | 957 | 90 | – |
| Cn1nnc2ccc(C(=O)NC3CN(c4cc(Cl)ncc4Cl)C3)cc21 | 721 | – | – | Kp uu at 0.25 h [1]: < 0.11; Kp at 0.25 h [2]: < 0.05; CLint scaled [3]: 10 mL/min/kg; CLint scaled [4]: 21 mL/min/kg |
| Cc1c2c(ccc3c(N4CC5(COC5)C4)ncnc32)nn1C | – | 528 | 90 | – |
| Cc1c2c(ccc3c(NCc4ccc(C(=O)NC5CCCC5)cc4)ncnc32)nn1C | 168 | 239 | 100 | – |
